# Entries after “also recorded” stand apart in the source; their conditions may differ.
# Assays:
# [1] = system: vesicular acetylcholine storage; conditions: cited from earlier work; for vesamicol-like inhibitory activity (in words): Kaufman et al 1988
# vesamicol receptor [2] = biological target: T1, vesamicol receptor (Tetronarce californica, UniProt P81721); assay: Binding affinities of aminoalcohols at the vesamicol receptor (purified cholinergic synaptic vesicles); design: species or system Torpedo californica
# T1 construct: no ATP or acetylcholine
# T1 sequence (P81721 1-515): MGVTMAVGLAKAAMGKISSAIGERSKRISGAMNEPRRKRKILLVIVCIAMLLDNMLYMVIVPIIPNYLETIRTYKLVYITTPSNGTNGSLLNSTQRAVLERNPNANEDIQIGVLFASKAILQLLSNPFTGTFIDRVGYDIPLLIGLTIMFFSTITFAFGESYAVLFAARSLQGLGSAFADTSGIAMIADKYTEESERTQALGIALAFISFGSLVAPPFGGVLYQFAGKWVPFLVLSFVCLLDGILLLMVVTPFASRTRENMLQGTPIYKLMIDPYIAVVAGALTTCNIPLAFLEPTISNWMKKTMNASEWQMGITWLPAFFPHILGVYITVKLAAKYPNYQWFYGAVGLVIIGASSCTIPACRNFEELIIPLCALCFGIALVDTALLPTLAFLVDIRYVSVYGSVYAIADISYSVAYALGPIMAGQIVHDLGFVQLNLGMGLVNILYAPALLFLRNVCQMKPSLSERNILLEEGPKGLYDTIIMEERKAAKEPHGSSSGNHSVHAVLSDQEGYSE
# Method: The compounds were evaluated in a purified preparation of cholinergic synaptic vesicles isolated from the electric organ of Torpedo californica. A full description of this assay was described earlier. However, the present study was carried out in the absence of ATP and acetylcholine. […] Nonlinear regression analysis was carried out with MINSQ (MicroMath Scientific Software, Salt Lake City, Utah.). Protein content was determined by the method of Bradford, using a bovine serum albumin standard.
# ^a The compounds were tested as the corresponding hydrochlorides,
# using highly purified synaptic vesicles obtained from the electric organ
# of Torpedo Californica, following a procedure described earlier (8).
# monkey brain = assay: Brain imaging study (SPECT); format: in vivo; conditions: cynomolgus monkey
# Method: These studies were conducted with a Picker 3-head PRISM camera equipped with a high-resolution fan beam collimator. A 5-Kg male cynomolgus monkey, anesthetized with halothane, received an intravenous dose of 12 mCi of (-)-4-[^123 I]HIPP ((-)-[^123 I]5) in 1 ml of 50% ethanol-isotonicsaline. Data acquisition which commenced simultaneously, in the "step and shoot" mode, was divided into one 5minute segment, six 10-minute segments and a final 20-minute segment. At 18 hours post-injection, data was acquired under similar conditions for both the head and the heart, over a 20 minute period. For cardiac imaging, the camera was equipped with a medium-energy-parallel-hole collimator. The data was subsequently processed to obtain both a time-activity curve and images in the transaxial and sagittal planes. To obtain an estimate of the fractional accumulation of (-)-4-^123 I]HIPP in the monkey brain, a phantom filled consecutively with varying concentrations of aqueous Na^125 I was counted with the gamma camera to generate a standard curve.
# vesamicol receptor [3] = assay: Blocking experiments: inhibition of radiotracer accumulation in the rat by coadministered compound; format: in vivo, rat (male Wistar); conditions: rat, 60 min; for Brain: Blood Ratio / Heart: Blood Ratio / radioactivity in blood / radioactivity in brain / radioactivity in heart / radioactivity in kidney / radioactivity in liver / radioactivity in lung / radioactivity in muscle / radioactivity in spleen: iv
# Outline: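 Male Wistar rats (n=3/group) got iv radiotracer, alone or coadministered with blocker (e.g. (+)/(−)-HBrPP·HCl 1.3 μmol/kg, vesamicol·HCl 1.1 μmol/kg, or 0.31–0.53 mg/kg in other series). Blood and tissues taken 60 min post-injection to assess radiotracer accumulation.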
# [4] = Tissue distribution (biodistribution) of radioiodinated compound in the rat; conditions: for Brain: Blood Ratio / Heart: Blood Ratio: iv
# rat brain = assay: Ex vivo autoradiographic studies, regional distribution in the rodent brain; design: species or system rat (male Wistar); conditions: 3 hours
# Method: Four male Wistar rats weighing 300-330 g. were anesthetized with diethyl ether. While under anesthesia two animals each received an intravenous dose of 300 μCi of (-)-4-[^125 I]HIPP in […] of 50% aqueous ethanol. The second pair of animals received an iv dose of (+)-4-[^125I]HIPP (170 μCi) in the same solvent. The animals were sacrificed by decapitation three hours following radiotracer administration. The brains were harvested, embedded in Tissue Tek OCT embedding medium and frozen to -38° C. Twenty-micron thick brain sections were obtained at -15° C. using a Reicheft HistoSTAT cryostat microtome. The sections were dried and opposed to Kodak NMC film for autoradiography accompanied by external standards (^125 I-labelled microscales from Amersham). Images were subsequently digitized based on the linear scale obtained from these standards.
# vesamicol receptor [5] = conditions: rodent brain; cited from earlier work
# vesamicol receptor [6] = conditions: cited from earlier work
# [7] = coadministered blocker, listed as (+)-[^125 I]5
# [8] = + (dl)-vesamicol HCl 0.3 (Table 3) or 0.31 mg/kg
smiles,measurement,setting,value
OCCN1CCC(c2ccccc2)CC1 [Compound 4],vesamicol-like inhibitory activity (in words),[1]; Rogers et al 1989,weak inhibitors; also recorded: very weak inhibitor
same,potency relative to vesamicol,[1]; Rogers et al 1989,two hundred and fifty times less potent
CC(O)CN1CCC(c2ccccc2)CC1 (centres unmarked) [Compound 14],vesamicol-like inhibitory activity (in words),[1]; Rogers et al 1989,weak inhibitors
"OC(Cc1ccc(Br)cc1)CN1CCC(c2ccccc2)CC1 (single isomer, unassigned; (-)) [(-)-15a, 3-(4-Bromophenyl)-2-hydroxy-1-[1-(4-phenylpiperidinyl)]propane]",binding to the vesamicol receptor (in words),vesamicol receptor [2],essentially equipotent with vesamicol
"OC(Cc1cccc(I)c1)CN1CCC(c2ccccc2)CC1 (single isomer, unassigned; (+)) [Compound 15j, (+)-2-Hydroxyl-3-(3-iodophenyl)-1-[1-(4-phenylpiperidinyl)]propane]",Kd,"vesamicol receptor [2]; synaptic vesicles from electric organ of Torpedo californica, tested as hydrochloride",0.073 ± 0.011 µM
"OC(Cc1ccc([123I])cc1)CN1CCC(c2ccccc2)CC1 (single isomer, unassigned; (-)) [(-)-4-[^123 I]HIPP, 2-Hydroxy-3-(4-iodophenyl)-1-(4-phenylpiperidyl)propane]",brain activity relative to surrounding tissues,monkey brain; 11/2 and 18 hours post-injection,high levels of activity
same,t-1/2 in the monkey brain,monkey brain; iv,9 h
same,accumulation within the brain,"monkey brain; iv, estimated",~3 % of the injected dose
"OC(Cc1ccc([125I])cc1)CN1CCC(c2ccccc2)CC1 (single isomer, unassigned; (+)) [(+)-4-[^125 l]HIPP] [2-Hydroxy-3-(4-iodophenyl)-1-(4-phenylpiperidyl)propane]",reduction of accumulation of radioactivity in the brain,vesamicol receptor [3]; [7],53%-58%
same,reduction of accumulation of radioactivity in the heart,vesamicol receptor [3]; [7],74% -76%
same,Brain: Blood Ratio,vesamicol receptor [3]; + (+)-7 HCl 0.53 mg/kg,3.9
same,Heart: Blood Ratio,vesamicol receptor [3]; + (+)-7 HCl 0.53 mg/kg,1.8
same,radioactivity in blood,vesamicol receptor [3]; + (+)-7 HCl 0.53 mg/kg,0.06 % dose/g of tissue
same,radioactivity in brain,vesamicol receptor [3]; + (+)-7 HCl 0.53 mg/kg,0.32 % dose/g of tissue
same,radioactivity in heart,vesamicol receptor [3]; + (+)-7 HCl 0.53 mg/kg,0.15 % dose/g of tissue
same,radioactivity in kidney,vesamicol receptor [3]; + (+)-7 HCl 0.53 mg/kg,0.47 % dose/g of tissue
same,radioactivity in liver,vesamicol receptor [3]; + (+)-7 HCl 0.53 mg/kg,1.13 % dose/g of tissue
same,radioactivity in lung,vesamicol receptor [3]; + (+)-7 HCl 0.53 mg/kg,1.29 % dose/g of tissue
same,radioactivity in muscle,vesamicol receptor [3]; + (+)-7 HCl 0.53 mg/kg,0.08 % dose/g of tissue
same,radioactivity in spleen,vesamicol receptor [3]; + (+)-7 HCl 0.53 mg/kg,0.71 % dose/g of tissue
same,radioactivity in spleen,vesamicol receptor [3]; + (-)-7 HCl 0.53 mg/kg,0.57 % dose/g of tissue
same,Brain: Blood Ratio,vesamicol receptor [3]; + (-)-7 HCl 0.53 mg/kg,4.5
same,Heart: Blood Ratio,vesamicol receptor [3]; + (-)-7 HCl 0.53 mg/kg,2.0
same,radioactivity in blood,vesamicol receptor [3]; + (-)-7 HCl 0.53 mg/kg,0.05 % dose/g of tissue
same,radioactivity in brain,vesamicol receptor [3]; + (-)-7 HCl 0.53 mg/kg,0.32 % dose/g of tissue
same,radioactivity in heart,vesamicol receptor [3]; + (-)-7 HCl 0.53 mg/kg,0.16 % dose/g of tissue
same,radioactivity in kidney,vesamicol receptor [3]; + (-)-7 HCl 0.53 mg/kg,0.54 % dose/g of tissue
same,radioactivity in liver,vesamicol receptor [3]; + (-)-7 HCl 0.53 mg/kg,0.90 % dose/g of tissue
same,radioactivity in lung,vesamicol receptor [3]; + (-)-7 HCl 0.53 mg/kg,1.51 % dose/g of tissue
same,radioactivity in muscle,vesamicol receptor [3]; + (-)-7 HCl 0.53 mg/kg,0.09 % dose/g of tissue
same,Brain: Blood Ratio,vesamicol receptor [3]; [8],9.7
same,Heart: Blood Ratio,vesamicol receptor [3]; [8],3.8
same,radioactivity in blood,vesamicol receptor [3]; [8],0.04 % dose/g of tissue
same,radioactivity in brain,vesamicol receptor [3]; [8],0.36 % dose/g of tissue
same,radioactivity in heart,vesamicol receptor [3]; [8],0.15 % dose/g of tissue
same,radioactivity in kidney,vesamicol receptor [3]; [8],0.46 % dose/g of tissue
same,radioactivity in liver,vesamicol receptor [3]; [8],2.23 % dose/g of tissue
same,radioactivity in lung,vesamicol receptor [3]; [8],1.11 % dose/g of tissue
same,radioactivity in muscle,vesamicol receptor [3]; [8],0.08 % dose/g of tissue
same,radioactivity in spleen,vesamicol receptor [3]; [8],0.68 % dose/g of tissue
same,Brain: Blood Ratio,vesamicol receptor [3]; radiotracer only (control),28.7
same,Heart: Blood Ratio,vesamicol receptor [3]; radiotracer only (control),39.8
same,radioactivity in blood,vesamicol receptor [3]; radiotracer only (control),0.02 % dose/g of tissue
same,radioactivity in brain,vesamicol receptor [3]; radiotracer only (control),0.76 % dose/g of tissue
same,radioactivity in heart,vesamicol receptor [3]; radiotracer only (control),0.60 % dose/g of tissue
same,radioactivity in kidney,vesamicol receptor [3]; radiotracer only (control),1.63 % dose/g of tissue
same,radioactivity in liver,vesamicol receptor [3]; radiotracer only (control),1.38 % dose/g of tissue
same,radioactivity in lung,vesamicol receptor [3]; radiotracer only (control),3.46 % dose/g of tissue
same,radioactivity in muscle,vesamicol receptor [3]; radiotracer only (control),0.13 % dose/g of tissue
same,radioactivity in spleen,vesamicol receptor [3]; radiotracer only (control),1.10 % dose/g of tissue
same,tissue distribution profile compared with (-)-[^125 I]5,[4]; rat,similar
same,injected dose found in the brain,"[4]; rat, 5 minutes post injection, listed as (+)-[^125 I]5",2.27 % of the injected dose
same,injected dose found in the heart,"[4]; rat, 5 minutes post-injection, listed as (+)-[^125 I]5",1.23 % of the injected dose
same,decrease of radioactivity in the heart,"[4]; rat, between 5 and 30 minutes",32%
same,concentration of radioactivity in the brain over time,"[4]; rat, duration of the study (3 hours), listed as (+)-[^125 I]5",remained essentially constant
same,Brain: Blood Ratio,"[4]; rat, 5 min",15.2
same,Heart: Blood Ratio,"[4]; rat, 5 min",22.7
same,Brain: Blood Ratio,"[4]; rat, 30 min",32.4
same,Heart: Blood Ratio,"[4]; rat, 30 min",32.7
same,Brain: Blood Ratio,"[4]; rat, 60 min",44.3
same,Heart: Blood Ratio,"[4]; rat, 60 min",40.2
same,Brain: Blood Ratio,"[4]; rat, 180 min",44.8
same,Heart: Blood Ratio,"[4]; rat, 180 min",28.2
same,level of radioactivity in the blood,"[4]; rat, throughout the study",low
same,brain retention (in words),[4]; rodent (and monkey),comparable retention
same,radioactivity in cerebellar molecular layer relative to granular layer,rat brain,slightly higher concentration
same,radioactivity in frontal cortex and caudate-putamen,rat brain,Moderate levels
same,radioactivity in pineal gland and nuclei of fifth and seventh cranial nerves,rat brain,highest levels
same,radioactivity in the white matter,rat brain,relatively low
O[C@@H]1CCCC[C@H]1N1CCC(c2ccccc2)CC1 (relative stereo) [[^3 H]vesamicol],cortical [^3 H]vesamicol binding after lesioning a known cholinergic pathway,vesamicol receptor [5],significant decrease
same,distribution relative to other markers of cholinergic innervation,vesamicol receptor [5],correlate well
Nc1cccc2c1CC(N1CCC(c3ccccc3)CC1)C(O)C2 (centres unmarked) [Compound 2],vesamicol-like inhibitory activity (in words),[1]; Rogers et al 1989,potent
same,ligand potency at the vesamicol receptor (in words),vesamicol receptor [6]; literature,potent ligands
OC1Cc2ccccc2CC1N1CCC(c2ccccc2)CC1 (centres unmarked) [Compound 1],vesamicol-like inhibitory activity (in words),[1]; Rogers et al 1989,potent
same,eudesmic ratio,vesamicol receptor [6],not unity
"OC(CN1CCC(c2ccccc2)CC1)c1ccc(Br)cc1 (racemic) [Compound 15i, (dl)-1-(4-Bromophenyl)-2-(4-phenylpiperidinyl)ethanol]",binding to the vesamicol receptor (in words),vesamicol receptor [2],equipotent with (dl)-vesamicol
CC(O)CN1CCC(c2ccccc2)CC1 (centres unmarked) [Compound 14b],increase in activity relative to ethanol analog 4,[1]; addition of an α-methyl group,thirty-fold increase in activity

# Reference: patent US5358712A, “Radiopharmaceutical agents for the detection of Alzheimer's disease” (Regents of the University of Minnesota, priority 1993, dated 1994)
